# Key:
# SH-SY5Y cells [1] = assay: NADPH-diaphorase activity in cell lysates of SH-SY5Y cells; format: cell-based, human; conditions: 100 μM 7-NI or 20 nM siRNA (SEQ ID NO: 4), absorbance at 585 nm normalized for total protein, n=3
# Experimental: (§1) In FIGS. 2A-2C, for quantitative analysis absorbance at 585 nm was normalized for total protein. Data are expressed as the mean±SEM. Statistical significance was determined using a One-way ANOVA followed by Fisher's LSD multiple comparison post hoc test. *P<0.05 and **P<0.01.
# FIG. 2A: Quantitative analysis of NADPH-diaphorase activity in cell lysates of SH-SY5Y cells following the administration of the control (“SH-SY5Y”) (n=3), 0.1% DMSO (“SH-SY5Y+NC”) (n=3), 100 μM 7-NI (“SH-SY5Y+7-NI”) (n=3), or 20 nM siRNA (SEQ ID NO: 4) (“SH-SY5Y+si-nNOS”) (n=3).
# FIG. 2C: Representative images of cultured SH-SY5Y cells stained for NADPH-diaphorase activity.
# SH-SY5Y cells [2] = assay: Nitrite levels (marker of NO levels) by Griess assay in SH-SY5Y cells; format: cell-based, human; conditions: 100 μM 7-NI or 20 nM siRNA (SEQ ID NO: 4), n=3
# Experimental: as §1
# FIG. 2B: Quantitative analysis of nitrite levels (a marker of NO levels) measured by Griess assay for SH-SY5Y cells following administration of the control (“SH-SY5Y”) (n=3), 0.1% DMSO (“SH-SY5Y+NC”) (n=3), 100 μM 7-NI (“SH-SY5Y+7-NI”) (n=3), 20 nM siRNA (SEQ ID NO: 4) (“SH-SY5Y+si-nNOS”) (n=3).
# SH-SY5Y cells [3] = assay: Immunofluorescent staining of Syp and 3-Ntyr in SH-SY5Y cells; format: cell-based, human; conditions: immunofluorescence, 100 μM 7-NI or 20 nM siRNA
# Experimental: In FIGS. 5A-5C, for quantitative analysis each group consisted of three independent sets of experiments run in triplicate. Data are presented as mean±SEM. Statistical significance was determined using a One-way ANOVA followed by Fisher's LSD multiple comparison post hoc test. **P<0.01 and ***P<0.001.
# FIG. 5A: Representative immunofluorescent images of SH-SY5Y cells stained for Syp and 3-Ntyr following administration of the control (“SH-SY5Y”), 100 μM 7-NI (“SH-SY5Y+7-NI”), or 20 nM siRNA (SEQ ID NO: 4) (“SH-SY5Y+si-nNOS”). The scale bar is 10 μm.
# FIG. 5B: Quantitative analysis of fluorescent intensity of Syp for the experiments of FIG. 5A.
# FIG. 5C: Quantitative analysis of fluorescent intensity of 3-Ntyr for the experiments of FIG. 5A.
# SH-SY5Y cells [4] = assay: NADPH-diaphorase activity assay (NOS activity) in SH-SY5Y cell lysates; format: cell-based, human; conditions: 100 μM 7-NI, 24 hr
# Experimental: Human neuroblastoma (“NB”) SH-SY5Y cells were obtained from the American Type Culture Collection (ATCC) and maintained in Dulbecco's modified Eagle's medium (DMEM) and Ham's F-12 (1:1) supplemented with 10% fetal bovine serum, 2 mM L-glutamine, and 100 U/ml penicillin-G/[…] streptomycin in the humidified atmosphere (37° C., 5% CO2). Cells were plated onto 25 cm^2 and 75 cm^2 at a density of […] respectively for Western blotting (WB) and 1×10^5 for immunofluorescence. The SH-SY5Y cells were treated with 100 μM 7-nitroindazole (7-NI) for 24 hr. This concentration was confirmed in the dose-response experiment (FIG. 1) using an MTT viability assay.
# The NADPH-diaphorase activity assay was used to determine the NOS activity based on the NADPH-dependent reduction of nitro-blue tetrazolium salt (NBT) to visible formazan. SH-SYSY cells grown in six-well culture plates were lysed in 50 mM Tris-HCl buffer (pH 7.4), containing 0.1% Triton X-100, 2 mM EDTA, and a protease inhibitor cocktail (Sigma, St. Louis, MO). […] After a 15 min incubation period at 37° C., the production of formazan was measured spectrophotometrically at 585 nm. The data were expressed as absorbance units and normalized for the protein content of each sample. Protein concentration was measured by the bicinchoninic acid (BCA) protein assay using BSA as a standard. […]
# U87-MG cells = assay: Xenograft glioblastoma model, U87-MG cells in NSG mice: tumor volume and mass; format: in vivo
# Experimental: A xenograft glioblastoma model was generated by injecting 1.0×10^6 U87-MG cells (in PBS) into the subcutaneous tissue in the flank of NOD SCID Gamma (NSG) male (n=40) and female mice (n=5). Mice were 6-7 weeks old at time of injections. Mice were divided into groups and treatment was started when tumor volume reached 50 mm^3.
# An initial experiment was performed with two treatment groups of mice, the treatment groups were: 0.1% DMSO (“Vehicle”) (n=10) and 80 mg/kg of 7-NI (n=10). Treatments were administered intraperitoneally daily for 8 days. Treatment started after five days from the injection with U87-MG cells. After one month, all mice were euthanized, and tumors were harvested for ex vivo analysis and histology. Tumor volume was measured using calipers and was calculated as (length*width^2)/2. The tumor volume of all mice were tabulated, as well the best 4-5 mice in terms of treatment efficacy (smallest tumor volume).
# A dose response experiment was performed in the mice, the treatment groups were 0.1% DMSO (“Vehicle”) (n=8), 20 mg/kg 7-NI (n=8), 40 mg/kg 7-NI (n=8), and 80 mg/kg 7-NI (n=8). Treatments were administered intraperitoneally daily, for 14 days. Treatment started after five days from the injection with U87-MG cells. All mice were euthanized, and tumors were harvested for ex vivo analysis and histology. Tumor volume was measured using calipers and was calculated as (length*width^2)/2. The tumor volume of all mice were tabulated, as well the tumor mass.
# [5] = test system: U87-MG human glioblastoma cell line; assay: 3-Ntyr levels in U87-MG cells after treatment; format: cell-based; conditions: compared to the control, not significant (FIGS. 12C-12D)
# [6] = highest dosage of 7-NI (80 mg/kg) in dose response experiment, daily for 14 days, vs lower dosages
# [7] = reduced dosages, as low as 20 mg/kg 7-NI intraperitoneally daily for 14 days, vs vehicle
SMILES,NADPH-diaphorase activity (SH-SY5Y cells [1]),nitrite levels (a marker of NO levels) (SH-SY5Y cells [2]),3-Ntyr expression levels (fluorescent intensity) (SH-SY5Y cells [3]),Syp expression levels (fluorescent intensity) (SH-SY5Y cells [3]),NADPH diaphorase activity (NOS activity) (SH-SY5Y cells [4]),"average tumor size (U87-MG cells; NSG mice, 80 mg/kg 7-NI intraperitoneally daily for 8 days, vs vehicle)",average tumor size (U87-MG cells; [6]),tumor mass (U87-MG cells; [6]),average tumor size (U87-MG cells; [7]),tumor mass (U87-MG cells; [7]),3-Ntyr levels ([5]; higher dose),3-Ntyr levels ([5]; lower dose)
"O=[N+]([O-])c1cccc2cn[nH]c12 [7-NI, 7-nitroindazole]",significant decrease,significant decrease,significant decrease,significant decrease,significantly inhibited,significantly smaller,larger reduction,larger reduction,significantly smaller,smaller,–,–
"CC(=N)NCCCC[C@H](N)C(=O)O [L-NIL, N^6-(1-iminoethyl)-L-lysine]",–,–,–,–,–,–,–,–,–,–,reduced,slightly increased

# Reference: patent publication US20260284009A1, “COMPOUNDS FOR NOS-RELATED CANCERS AND METHODS OF USE” (YISSUM RESEARCH DEVELOPMENT COMPANY OF THE HEBREW …, priority 2023, published 2026)
